Measurements: PubChem BioAssay (NCI)
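Grown in 96-well plates, cells were treated for 48 hours with each compound at five concentrations. Insufficient inhibition: endpoint recorded as highest concentration tested. Here, GI50 denotes the concentration required for 50% inhibition of growth. At the TGI there is no net growth.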

How the values were obtained:
Assay in all cases: NCI-60 cell line screen, 48 h
[1] = system: 786-0 renal
[2] = system: A498 renal
[3] = system: A549 NSCLC
[4] = system: ACHN renal
[5] = system: BT-549 breast
[6] = system: CAKI-1 renal
[7] = system: CCRF-CEM leukemia
[8] = system: COLO 205 colon
[9] = system: DU-145 prostate
[10] = system: HCC-2998 colon
[11] = system: HCT-116 colon
[12] = system: HCT-15 colon
[13] = system: HL-60(TB) leukemia
[14] = system: HOP-62 NSCLC
[15] = system: HOP-92 NSCLC
[16] = system: HS 578T breast
[17] = system: HT29 colon
[18] = system: IGROV1 ovarian
[19] = system: K-562 leukemia
[20] = system: KM12 colon
[21] = system: LOX IMVI melanoma
[22] = system: M14 melanoma
[23] = system: MALME-3M melanoma
[24] = system: MCF7 breast
[25] = system: MDA-MB-231 breast
[26] = system: MDA-MB-435
[27] = system: MOLT-4 leukemia
[28] = system: NCI-H226 lung
[29] = system: NCI-H23 lung
[30] = system: NCI-H460 lung
[31] = system: NCI-H522 lung
[32] = system: NCI/ADR-RES ovarian
[33] = system: OVCAR-3 ovarian
[34] = system: OVCAR-4 ovarian
[35] = system: OVCAR-5 ovarian
[36] = system: OVCAR-8 ovarian
[37] = system: PC-3 prostate
[38] = system: RPMI-8226 leukemia
[39] = system: RXF 393 renal
[40] = system: SF-268 CNS
[41] = system: SF-295 CNS
[42] = system: SF-539 CNS
[43] = system: SK-MEL-2 melanoma
[44] = system: SK-MEL-28 melanoma
[45] = system: SK-MEL-5 melanoma
[46] = system: SK-OV-3 ovarian
[47] = system: SN12C renal
[48] = system: SNB-19 CNS
[49] = system: SNB-75 CNS
[50] = system: SR leukemia
[51] = system: SW-620 colon
[52] = system: T-47D breast
[53] = system: TK-10 renal
[54] = system: U251 CNS
[55] = system: UACC-257 melanoma
[56] = system: UACC-62 melanoma
[57] = system: UO-31 renal

`CS(=O)(=O)CCCn1c(=O)c(Oc2ccc(F)cc2F)cc2cnc(NC3CCOCC3)nc21` was tested, and the GI50 [1] was over 25 µM, the TGI [1] was over 25 µM and the GI50 [2] was over 25 µM. The TGI [2] was over 25 µM, the GI50 [3] was over 25 µM and the TGI [3] was over 25 µM. The GI50 [4] was over 25 µM, the TGI [4] was over 25 µM and the GI50 [5] was over 25 µM. It also gave a TGI [5] of over 25 µM, a GI50 [6] of over 25 µM and a TGI [6] of over 25 µM. The GI50 [7] was over 25 µM, the TGI [7] was over 25 µM and the GI50 [8] was over 25 µM. It also gave a TGI [8] of over 25 µM, a GI50 [9] of over 25 µM and a TGI [9] of over 25 µM. The GI50 [10] was over 25 µM, the TGI [10] was over 25 µM and the GI50 [11] was over 25 µM. For the same compound, the TGI [11] was over 25 µM, the GI50 [12] was over 25 µM and the TGI [12] was over 25 µM. The GI50 [13] was over 25 µM, the TGI [13] was over 25 µM and the GI50 [14] was over 25 µM. For the same compound, the TGI [14] was over 25 µM, the GI50 [15] was over 25 µM and the TGI [15] was over 25 µM. For the same compound, the GI50 [16] was over 25 µM, the TGI [16] was over 25 µM and the GI50 [17] was over 25 µM. It also gave a TGI [17] of over 25 µM, a GI50 [18] of over 25 µM and a TGI [18] of over 25 µM. For the same compound, the GI50 [19] was over 25 µM, the TGI [19] was over 25 µM and the GI50 [20] was over 25 µM. It also gave a TGI [20] of over 25 µM, a GI50 [21] of over 25 µM and a TGI [21] of over 25 µM. For the same compound, the GI50 [22] was over 25 µM, the TGI [22] was over 25 µM and the GI50 [23] was over 25 µM. For the same compound, the TGI [23] was over 25 µM, the GI50 [24] was over 25 µM and the TGI [24] was over 25 µM. It also gave a GI50 [25] of over 25 µM, a TGI [25] of over 25 µM and a GI50 [26] of over 25 µM. It also gave a TGI [26] of over 25 µM, a GI50 [27] of over 25 µM and a TGI [27] of over 25 µM. For the same compound, the GI50 [28] was over 25 µM, the TGI [28] was over 25 µM and the GI50 [29] was over 25 µM. It also gave a TGI [29] of over 25 µM, a GI50 [30] of over 25 µM and a TGI [30] of over 25 µM. The GI50 [31] was over 25 µM, the TGI [31] was over 25 µM and the GI50 [32] was over 25 µM. It also gave a TGI [32] of over 25 µM, a GI50 [33] of over 25 µM and a TGI [33] of over 25 µM. For the same compound, the GI50 [34] was over 25 µM, the TGI [34] was over 25 µM and the GI50 [35] was over 25 µM. The TGI [35] was over 25 µM, the GI50 [36] was over 25 µM and the TGI [36] was over 25 µM. It also gave a GI50 [37] of over 25 µM, a TGI [37] of over 25 µM and a GI50 [38] of over 25 µM. The TGI [38] was over 25 µM, the GI50 [39] was over 25 µM and the TGI [39] was over 25 µM. For the same compound, the GI50 [40] was over 25 µM, the TGI [40] was over 25 µM and the GI50 [41] was over 25 µM. It also gave a TGI [41] of over 25 µM, a GI50 [42] of over 25 µM and a TGI [42] of over 25 µM. It also gave a GI50 [43] of over 25 µM, a TGI [43] of over 25 µM and a GI50 [44] of over 25 µM. It also gave a TGI [44] of over 25 µM, a GI50 [45] of over 25 µM and a TGI [45] of over 25 µM. It also gave a GI50 [46] of over 25 µM, a TGI [46] of over 25 µM and a GI50 [47] of over 25 µM. For the same compound, the TGI [47] was over 25 µM, the GI50 [48] was over 25 µM and the TGI [48] was over 25 µM. For the same compound, the GI50 [49] was over 25 µM, the TGI [49] was over 25 µM and the GI50 [50] was over 25 µM. It also gave a TGI [50] of over 25 µM, a GI50 [51] of over 25 µM and a TGI [51] of over 25 µM. It also gave a GI50 [52] of over 25 µM, a TGI [52] of over 25 µM and a GI50 [53] of over 25 µM. The TGI [53] was over 25 µM, the GI50 [54] was over 25 µM and the TGI [54] was over 25 µM. The GI50 [55] was over 25 µM, the TGI [55] was over 25 µM and the GI50 [56] was over 25 µM. It also gave a TGI [56] of over 25 µM, a GI50 [57] of over 25 µM and a TGI [57] of over 25 µM.
